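Interpolation was linear, between the two tested concentrations surrounding the appropriate level; five concentrations were tested over 48 hours in 96-well plates. TGI denotes the concentration required for complete inhibition of growth.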
Experiments:
Assay in all cases: NCI anticancer screen, dose series, 48 h
MOLT-4 leukemia = system: MOLT-4 leukemia
OVCAR-4 ovarian = system: OVCAR-4 ovarian
SNB-75 CNS = system: SNB-75 CNS
HL-60(TB) leukemia = system: HL-60(TB) leukemia
SK-MEL-2 melanoma = system: SK-MEL-2 melanoma
SF-539 CNS = system: SF-539 CNS
HOP-18 NSCLC = system: HOP-18 NSCLC
SF-268 CNS = system: SF-268 CNS
SR leukemia = system: SR leukemia
RXF-631 renal = system: RXF-631 renal
KM12 colon = system: KM12 colon
RPMI-8226 leukemia = system: RPMI-8226 leukemia
UACC-257 melanoma = system: UACC-257 melanoma
SK-MEL-28 melanoma = system: SK-MEL-28 melanoma
EKVX NSCLC = system: EKVX NSCLC
HOP-62 NSCLC = system: HOP-62 NSCLC
COLO 205 colon = system: COLO 205 colon
KM20L2 colon = system: KM20L2 colon
SW-620 colon = system: SW-620 colon
SNB-19 CNS = system: SNB-19 CNS
SK-OV-3 ovarian = system: SK-OV-3 ovarian
ACHN renal = system: ACHN renal
M14 melanoma = system: M14 melanoma
A549 NSCLC = system: A549 NSCLC
M19-MEL melanoma = system: M19-MEL melanoma
MALME-3M melanoma = system: MALME-3M melanoma
DMS 114 small cell lung = system: DMS 114 small cell lung
CCRF-CEM leukemia = system: CCRF-CEM leukemia
DMS 273 small cell lung = system: DMS 273 small cell lung
RXF 393 renal = system: RXF 393 renal
NCI-H23 lung = system: NCI-H23 lung
SN12C renal = system: SN12C renal
SF-295 CNS = system: SF-295 CNS
786-0 renal = system: 786-0 renal
OVCAR-8 ovarian = system: OVCAR-8 ovarian
HCT-116 colon = system: HCT-116 colon
U251 CNS = system: U251 CNS
LOX IMVI melanoma = system: LOX IMVI melanoma
SK-MEL-5 melanoma = system: SK-MEL-5 melanoma
IGROV1 ovarian = system: IGROV1 ovarian
OVCAR-5 ovarian = system: OVCAR-5 ovarian
HOP-92 NSCLC = system: HOP-92 NSCLC
HT29 colon = system: HT29 colon
A498 renal = system: A498 renal
SNB-78 CNS = system: SNB-78 CNS
UACC-62 melanoma = system: UACC-62 melanoma
UO-31 renal = system: UO-31 renal
TK-10 renal = system: TK-10 renal
CAKI-1 renal = system: CAKI-1 renal
K-562 leukemia = system: K-562 leukemia
XF 498 CNS = system: XF 498 CNS
OVCAR-3 ovarian = system: OVCAR-3 ovarian
NCI-H460 lung = system: NCI-H460 lung
NCI-H226 lung = system: NCI-H226 lung
DLD-1 colon = system: DLD-1 colon

Measured: TGI

OCC(CO)C1c2cccc3ccc4cccc1c4c23
> 100 µM: MOLT-4 leukemia | OVCAR-4 ovarian | SNB-75 CNS | HL-60(TB) leukemia | SK-MEL-2 melanoma | SF-539 CNS | HOP-18 NSCLC | SF-268 CNS | SR leukemia | RXF-631 renal | KM12 colon | RPMI-8226 leukemia | UACC-257 melanoma | SK-MEL-28 melanoma | EKVX NSCLC | HOP-62 NSCLC | COLO 205 colon | KM20L2 colon | SW-620 colon | SNB-19 CNS | SK-OV-3 ovarian | ACHN renal | M14 melanoma | A549 NSCLC | M19-MEL melanoma | MALME-3M melanoma | DMS 114 small cell lung | CCRF-CEM leukemia | DMS 273 small cell lung | RXF 393 renal | NCI-H23 lung | SN12C renal | SF-295 CNS | 786-0 renal | OVCAR-8 ovarian | HCT-116 colon | U251 CNS | LOX IMVI melanoma | SK-MEL-5 melanoma | IGROV1 ovarian | OVCAR-5 ovarian | HOP-92 NSCLC | HT29 colon | A498 renal | SNB-78 CNS | UACC-62 melanoma | UO-31 renal | TK-10 renal | CAKI-1 renal | K-562 leukemia | XF 498 CNS | OVCAR-3 ovarian | NCI-H460 lung | NCI-H226 lung | DLD-1 colon

From PubChem BioAssay (NCI)
